Experimental data: PubChem BioAssay (NCI)
Where “and” joins values, the source holds several entries; their conditions need not be identical. Identical values can stand only once.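 Five concentrations, 48 hours, 96-well plates. GI50: concentration for 50% inhibition of growth. Definition used: TGI = concentration required for complete inhibition of growth.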

Key:
Assay in all cases: NCI anticancer screen, dose series, 48 h
IGROV1 ovarian = test system: IGROV1 ovarian
OVCAR-5 ovarian = test system: OVCAR-5 ovarian
SK-MEL-2 melanoma = test system: SK-MEL-2 melanoma
RPMI-8226 leukemia = test system: RPMI-8226 leukemia
DU-145 prostate = test system: DU-145 prostate
TK-10 renal = test system: TK-10 renal
SNB-75 CNS = test system: SNB-75 CNS
RXF 393 renal = test system: RXF 393 renal
MDA-MB-435 = test system: MDA-MB-435
EKVX NSCLC = test system: EKVX NSCLC

Structure (SMILES) | GI50 (IGROV1 ovarian) | TGI (IGROV1 ovarian) | GI50 (OVCAR-5 ovarian) | TGI (OVCAR-5 ovarian) | GI50 (SK-MEL-2 melanoma) | TGI (SK-MEL-2 melanoma) | GI50 (RPMI-8226 leukemia) | TGI (RPMI-8226 leukemia) | GI50 (DU-145 prostate) | TGI (DU-145 prostate) | GI50 (TK-10 renal) | TGI (TK-10 renal) | GI50 (SNB-75 CNS) | TGI (SNB-75 CNS) | TGI (RXF 393 renal) | TGI (MDA-MB-435) | TGI (EKVX NSCLC) | GI50 (MDA-MB-435) | GI50 (EKVX NSCLC) | GI50 (RXF 393 renal)
C#Cc1cc2c(N)c(C(=O)c3cc(OC)c(OC)c(OC)c3)[nH]c2cc1OC | 2050 nM | 74900 nM | 3790 nM | > 100000 nM | 572 nM | 62900 nM | 1840 nM | 20000 nM | 1200 nM | > 100000 nM | 17800 nM | > 100000 nM | 208 nM | 1180 nM |  |  |  |  |  | 
COC(=O)C(Cc1nc2ccccc2[nH]c1=O)C(=O)C(=O)Nc1cc(C(F)(F)F)ccc1Cl (stereo not drawn) |  | 25300 nM |  | 33500 nM |  | 34900 nM |  | 51500 nM |  |  |  | 44000 nM |  | 46100 nM | 46300 nM | > 100000 nM | 39000 nM |  |  | 
COC(=O)C1C2CC3C(OC(=O)C31)C2OC(=O)[C@](OC)(c1ccccc1)C(F)(F)F (stereo partly drawn) |  | > 100000 nM |  | > 100000 nM |  | > 100000 nM |  | > 100000 nM |  |  |  | > 100000 nM |  | > 100000 nM | > 100000 nM |  | > 100000 nM |  |  | 
N#Cc1cccc(OCc2ccccc2COc2cccc(C#N)c2)c1 | > 100000 nM | > 100000 nM | 87000 nM | > 100000 nM | > 100000 nM | > 100000 nM | 15000 nM | 59100 nM | 25900 nM | 99100 nM | 11800 nM | 29500 nM | 29700 nM | 70400 nM |  | > 100000 nM | 69200 nM | 25400 nM | 28300 nM | 
CCCCCc1c(C)[nH]c(/C=C2\N=C(c3ccc[nH]3)C=C2OCc2ccccc2)c1C | 161 nM and 59.6 nM | 1790 nM and 1400 nM | 70.1 nM and 47.3 nM | 2310 nM and 1630 nM | 29.7 nM and 20.5 nM | 75.3 nM and 60.9 nM | 34.3 nM and 30.1 nM | 235 nM and 317 nM | 58.1 nM and 36.6 nM | 1620 nM and 1080 nM | 47.5 nM and 41.8 nM | 1010 nM and 471 nM | 80.3 nM and 21.4 nM | 577 nM and 82.5 nM | 768 nM and 374 nM | 296 nM and 134 nM |  | 36.7 nM and 32.4 nM |  | 69.7 nM and 47.3 nM
COc1ccc(-c2c(N)n[nH]c2-c2cc(OC)c(OC)c(OC)c2)cc1 | 769 nM | 60500 nM | 572 nM | > 100000 nM | 215 nM | > 100000 nM | 331 nM | 22500 nM | 272 nM |  |  |  | 216 nM | > 100000 nM | 740 nM | 90.7 nM | > 100000 nM | 26.2 nM | 3860 nM | 239 nM
COC(=O)Cc1nc2ccccc2o1 |  | > 100000 nM |  | > 100000 nM |  | > 100000 nM |  | > 100000 nM |  |  |  | > 100000 nM |  | > 100000 nM | > 100000 nM |  | > 100000 nM |  |  | 
COc1cc(C2c3cc4c(cc3[C@@H](Nc3ccc(N)cc3)C3COC(=O)[C@H]23)OCO4)cc(OC)c1O (stereo partly drawn) |  | 16400 nM | 896 nM | 31600 nM |  | 18900 nM |  | 12000 nM |  |  |  | 23700 nM | 347 nM |  | 13200 nM | 29600 nM | 10900 nM |  | 953 nM | 
